Measured values reported in ChEMBL document CHEMBL5729675, “Sulfonamide compound or salt thereof” (2023).

Target: Ribonucleotide reductase (Homo sapiens, UniProt P23921+Q7LG56)
Test: Human RNR Inhibition Effect: The inhibitory activity against the ribonucleotide reduction reaction (hereinafter referred to as RNR reaction) of the test compound was determined by measuring the formation of deoxycytidine diphosphate (hereinafter referred to as dCDP) from cytidine diphosphate (hereinafter referred to as CDP) by the following method.Human M1 subunit and human M2 subunit (mutant …

Chain of Ribonucleotide reductase (P23921 whole entry, looked up): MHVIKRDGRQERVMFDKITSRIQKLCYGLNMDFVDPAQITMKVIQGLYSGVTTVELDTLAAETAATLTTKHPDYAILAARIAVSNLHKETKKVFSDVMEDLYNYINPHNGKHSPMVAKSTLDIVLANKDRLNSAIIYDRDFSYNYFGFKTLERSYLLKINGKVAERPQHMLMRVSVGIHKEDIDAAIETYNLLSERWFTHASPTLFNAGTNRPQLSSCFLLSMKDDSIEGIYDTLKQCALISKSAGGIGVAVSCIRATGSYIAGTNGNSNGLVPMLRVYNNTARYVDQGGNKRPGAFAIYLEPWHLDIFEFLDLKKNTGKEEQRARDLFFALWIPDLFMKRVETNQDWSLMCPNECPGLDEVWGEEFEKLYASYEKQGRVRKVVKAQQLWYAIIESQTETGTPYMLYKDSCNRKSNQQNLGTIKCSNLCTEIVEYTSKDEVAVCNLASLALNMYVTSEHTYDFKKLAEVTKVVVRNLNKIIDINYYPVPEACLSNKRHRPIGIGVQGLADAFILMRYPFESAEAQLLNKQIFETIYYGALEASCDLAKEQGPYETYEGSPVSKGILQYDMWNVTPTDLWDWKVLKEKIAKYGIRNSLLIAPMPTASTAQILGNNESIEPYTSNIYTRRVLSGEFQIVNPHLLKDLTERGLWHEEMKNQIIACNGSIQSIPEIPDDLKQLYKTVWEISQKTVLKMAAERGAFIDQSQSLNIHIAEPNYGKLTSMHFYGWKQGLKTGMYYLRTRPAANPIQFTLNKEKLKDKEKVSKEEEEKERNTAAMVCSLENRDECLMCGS
Chain of Ribonucleotide reductase (Q7LG56 whole entry, looked up): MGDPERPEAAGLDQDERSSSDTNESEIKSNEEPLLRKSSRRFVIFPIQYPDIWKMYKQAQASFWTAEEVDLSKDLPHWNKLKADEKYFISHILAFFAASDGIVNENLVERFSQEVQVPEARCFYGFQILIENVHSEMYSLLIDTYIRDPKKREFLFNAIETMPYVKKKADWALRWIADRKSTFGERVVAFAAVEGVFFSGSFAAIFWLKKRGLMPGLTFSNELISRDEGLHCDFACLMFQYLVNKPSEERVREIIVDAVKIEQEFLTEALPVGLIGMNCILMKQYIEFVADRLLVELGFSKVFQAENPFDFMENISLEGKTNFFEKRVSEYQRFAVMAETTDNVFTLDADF

SMILES | IC50
Cc1ccc(F)c([C@@H](C)[C@H](NS(=O)(=O)c2ccc3c(c2)C(C)(O)CCC3)c2n[nH]c(=O)o2)c1C (stereo not given in full) | 360 nM
CC(O)c1nc(S(=O)(=O)N[C@H](c2n[nH]c(=O)o2)[C@H](C)c2cccc3c2CCC3)ccc1Cl (stereo not given in full) | 400 nM
Cc1ccc(F)c([C@@H](C)[C@H](NS(=O)(=O)c2cc(F)c(Cl)cc2C(N)=O)c2n[nH]c(=O)o2)c1C | 120 nM
Cc1ccc(F)c([C@@H](C)[C@H](NS(=O)(=O)c2ccc3c(c2)CCCO3)c2n[nH]c(=O)o2)c1C | 320 nM
Cc1ccc(F)c([C@@H](C)[C@H](NS(=O)(=O)c2ncc(Br)cc2C(=O)O)c2n[nH]c(=O)o2)c1C | 990 nM
Cc1cccc2cccc([C@@H](C)[C@H](NS(=O)(=O)c3ccc(Cl)c4c3OCCC4O)c3n[nH]c(=O)o3)c12 (stereo not given in full) | 230 nM
Cc1ccc(F)c([C@@H](C)[C@H](NS(=O)(=O)c2ccc(Cl)c(C(C)(C)O)n2)c2n[nH]c(=O)o2)c1C | 90 nM
Cc1ccc(F)c([C@@H](C)[C@H](NS(=O)(=O)c2ccc3[nH]ncc3c2)c2n[nH]c(=O)o2)c1C | 410 nM
Cc1ccc(F)c([C@@H](C)[C@H](NS(=O)(=O)c2ccc(Cl)c(C(=O)O)n2)c2n[nH]c(=O)o2)c1C | 190 nM
Cc1cc(S(=O)(=O)N[C@H](c2n[nH]c(=O)o2)[C@H](C)c2c(F)ccc(C)c2C)c(C(N)=O)cc1Cl | 100 nM
CC(O)c1c(Cl)ccc(S(=O)(=O)N[C@H](c2n[nH]c(=O)o2)[C@H](C)c2cccc3c2CCC3)c1Cl (stereo not given in full) | 170 nM
Cc1ccc(F)c([C@@H](C)[C@H](NS(=O)(=O)c2ccc(Cl)cc2C(=O)NO)c2n[nH]c(=O)o2)c1C | 70 nM
Cc1ccc(F)c([C@@H](C)[C@H](NS(=O)(=O)c2ccc3[nH]nnc3c2)c2n[nH]c(=O)o2)c1C | 660 nM
Cc1ccc(F)c([C@@H](C)[C@H](NS(=O)(=O)c2cccc3c2OCCN3)c2n[nH]c(=O)o2)c1C | 420 nM
Cc1ccc(F)c([C@@H](C)[C@H](NS(=O)(=O)c2ncc(Cl)cc2C(N)=O)c2n[nH]c(=O)o2)c1C | 40 nM
COc1cc(N)ccc1S(=O)(=O)N[C@H](c1n[nH]c(=O)o1)[C@H](C)c1c(F)ccc2ccccc12 | 260 nM
C[C@H](c1cccc2c1CCC2)[C@H](NS(=O)(=O)c1ccc(F)c(C(C)(C)O)c1F)c1n[nH]c(=O)o1 | 550 nM
Cc1ccc(F)c([C@@H](C)[C@H](NS(=O)(=O)c2cccc3c2CCNC3)c2n[nH]c(=O)o2)c1C | 760 nM
COc1cc(C(N)=O)c(S(=O)(=O)N[C@H](c2n[nH]c(=O)o2)[C@H](C)c2c(F)ccc(C)c2C)cc1OC | 360 nM
C[C@H](c1cccc2c1CCC2)[C@H](NS(=O)(=O)c1ccc(Br)c(C(C)(C)O)c1)c1n[nH]c(=O)o1 | 640 nM
Cc1c(Cl)ccc(F)c1[C@@H](C)[C@H](NS(=O)(=O)c1ncc(Br)cc1C(N)=O)c1n[nH]c(=O)o1 | 70 nM
Cc1ccc(F)c([C@@H](C)[C@H](NS(=O)(=O)c2ccc(Cl)c3c2OCCC3N)c2n[nH]c(=O)o2)c1C (stereo not given in full) | 130 nM
Cc1ccc(F)c([C@@H](C)[C@H](NS(=O)(=O)c2ccc(Cl)c3c2OCC(=O)N3CCO)c2n[nH]c(=O)o2)c1C | 130 nM
Cc1ccc(F)c([C@@H](C)[C@H](NS(=O)(=O)c2cc(OCC(F)F)ccc2C(N)=O)c2n[nH]c(=O)o2)c1C | 70 nM
Cc1ccc(F)c([C@@H](C)[C@H](NS(=O)(=O)c2c(F)cc(Cl)cc2C(=O)O)c2n[nH]c(=O)o2)c1C | 270 nM

SMILES | IC50
Cc1ccc(F)c([C@@H](C)[C@H](NS(=O)(=O)c2ccc(Cl)cc2C(=O)N(C)C)c2n[nH]c(=O)o2)c1C | 500 nM
Cc1ccc(F)c([C@@H](C)[C@H](NS(=O)(=O)c2ccc(Cl)cc2C(=O)NOCc2ccccc2)c2n[nH]c(=O)o2)c1C | 910 nM
Cc1ccc(F)c([C@@H](C)[C@H](NS(=O)(=O)c2ccc(Cl)cc2C(C)O)c2n[nH]c(=O)o2)c1C (stereo not given in full) | 380 nM
Cc1ccc(F)c([C@@H](C)[C@H](NS(=O)(=O)c2ccc(F)c(C(C)(C)O)c2F)c2n[nH]c(=O)o2)c1C | 90 nM
COc1cc(N)ccc1S(=O)(=O)N[C@H](c1n[nH]c(=O)o1)[C@H](C)c1cccc2c1CCC2 | 730 nM
Cc1ccc(F)c([C@@H](C)[C@H](NS(=O)(=O)c2cc(C(C)(C)O)c(Cl)cc2C(N)=O)c2n[nH]c(=O)o2)c1C | 60 nM
C[C@H](c1c(F)ccc2ccccc12)[C@H](NS(=O)(=O)c1ccc(Cl)c2c1OCCC2F)c1n[nH]c(=O)o1 (stereo not given in full) | 160 nM
Cc1ccc(F)c([C@@H](C)[C@H](NS(=O)(=O)c2ccc(Cl)c3c2C(O)CCC3)c2n[nH]c(=O)o2)c1C (stereo not given in full) | 910 nM
CNC(=O)c1cc(Cl)ccc1S(=O)(=O)N[C@H](c1n[nH]c(=O)o1)[C@H](C)c1c(F)ccc(C)c1C | 370 nM
COc1c(S(=O)(=O)N[C@H](c2n[nH]c(=O)o2)[C@H](C)c2c(F)ccc(C)c2C)ncc(Cl)c1C(C)O (stereo not given in full) | 200 nM
Cc1ccc(F)c([C@@H](C)[C@H](NS(=O)(=O)c2c(F)cc(Cl)cc2C(N)=O)c2n[nH]c(=O)o2)c1C | 140 nM
Cc1ccc(F)c([C@@H](C)[C@H](NS(=O)(=O)c2cccc3c2OCCC3(O)C(F)(F)F)c2n[nH]c(=O)o2)c1C (stereo not given in full) | 120 nM
COc1c(S(=O)(=O)N[C@H](c2n[nH]c(=O)o2)[C@H](C)c2c(F)ccc(C)c2C)ccc(Cl)c1C(C)(C)O | 110 nM
Cc1ccc(F)c([C@@H](C)[C@H](NS(=O)(=O)c2ccc(Cl)cc2C(=O)N2CCC2)c2n[nH]c(=O)o2)c1C | 410 nM
C[C@H](c1cccc2c1CCC2)[C@H](NS(=O)(=O)c1ccc(Cl)c(C(C)(C)O)n1)c1n[nH]c(=O)o1 | 440 nM
Cc1ccc(F)c([C@@H](C)[C@H](NS(=O)(=O)c2c(Cl)cc(Cl)cc2C(N)=O)c2n[nH]c(=O)o2)c1C | 420 nM
CNC(=O)c1cc(Br)cnc1S(=O)(=O)N[C@H](c1n[nH]c(=O)o1)[C@H](C)c1c(F)ccc(C)c1C | 250 nM
COc1c(S(=O)(=O)N[C@H](c2n[nH]c(=O)o2)[C@H](C)c2cccc(C)c2C)ccc(Cl)c1C(C)O (stereo not given in full) | 180 nM
CCc1ccc(F)c([C@@H](C)[C@H](NS(=O)(=O)c2ccc(Cl)c(C(C)O)c2OC)c2n[nH]c(=O)o2)c1C (stereo not given in full) | 150 nM
Cc1ccc(F)c([C@@H](C)[C@H](NS(=O)(=O)c2ccc(Cl)cc2N)c2n[nH]c(=O)o2)c1C | 230 nM
Cc1ccc(F)c([C@@H](C)[C@H](NS(=O)(=O)c2cc3c(cc2C(=O)O)OCCO3)c2n[nH]c(=O)o2)c1C | 790 nM
Cc1ccc(F)c([C@@H](C)[C@H](NS(=O)(=O)c2ccc(Cl)c3c2OCCN3)c2n[nH]c(=O)o2)c1C | 100 nM
COc1c(S(=O)(=O)N[C@H](c2n[nH]c(=O)o2)[C@H](C)c2c(F)ccc(C)c2C)ccc(Cl)c1C(C)=O | 110 nM
Cc1ccc(F)c([C@@H](C)[C@H](NS(=O)(=O)c2cc([N+](=O)[O-])c(Cl)cc2C(N)=O)c2n[nH]c(=O)o2)c1C | 130 nM
Cc1ccc(F)c([C@@H](C)[C@H](NS(=O)(=O)c2cc(C(C)(C)O)c(F)cc2C(N)=O)c2n[nH]c(=O)o2)c1C | 80 nM

SMILES | IC50
Cc1ccc(F)c([C@@H](C)[C@H](NS(=O)(=O)c2ccc(Cl)c(C(=O)N(C)C)n2)c2n[nH]c(=O)o2)c1C | 80 nM
COc1cc(N)ccc1S(=O)(=O)N[C@H](c1n[nH]c(=O)o1)[C@H](C)c1cccc2cccc(C)c12 | 510 nM
COc1c(S(=O)(=O)N[C@H](c2n[nH]c(=O)o2)[C@H](C)c2c(F)ccc3ccccc23)ccc(Cl)c1C(C)O (stereo not given in full) | 80 nM
Cc1ccc(F)c([C@@H](C)[C@H](NS(=O)(=O)c2ncc(Cl)cc2C(=O)O)c2n[nH]c(=O)o2)c1C | 500 nM
COc1cc(S(=O)(=O)N[C@H](c2n[nH]c(=O)o2)[C@H](C)c2c(F)ccc(C)c2C)c(C(N)=O)cc1Cl | 100 nM
C[C@H](c1cccc2c1CCCC2)[C@H](NS(=O)(=O)c1ccc(N)cc1)c1n[nH]c(=O)o1 | 850 nM
Cc1ccc(F)c([C@@H](C)[C@H](NS(=O)(=O)c2cc(C(C)(C)O)ccc2C(N)=O)c2n[nH]c(=O)o2)c1C | 60 nM
Cc1ccc(F)c([C@@H](C)[C@H](NS(=O)(=O)c2cc(F)c(Cl)cc2C(=O)O)c2n[nH]c(=O)o2)c1C | 960 nM
Cc1ccc(F)c([C@@H](C)[C@H](NS(=O)(=O)c2ccc3c(c2)N(C)CCC3)c2n[nH]c(=O)o2)c1C | 220 nM
Cc1ccc(F)c([C@@H](C)[C@H](NS(=O)(=O)c2ccc3c(c2)C(C)(O)CCO3)c2n[nH]c(=O)o2)c1C (stereo not given in full) | 180 nM
Cc1ccc(F)c([C@@H](C)[C@H](NS(=O)(=O)c2ccc(Cl)cc2C(=O)NCCO)c2n[nH]c(=O)o2)c1C | 270 nM
Cc1ccc(F)c([C@@H](C)[C@H](NS(=O)(=O)c2ccc(Cl)cc2C(N)=S)c2n[nH]c(=O)o2)c1C | 50 nM
Cc1c(Cl)ccc(F)c1[C@@H](C)[C@H](NS(=O)(=O)c1ncc(Cl)cc1C(N)=O)c1n[nH]c(=O)o1 | 100 nM
CC(=O)Nc1cc(Cl)ccc1S(=O)(=O)N[C@H](c1n[nH]c(=O)o1)[C@H](C)c1c(F)ccc(C)c1C | 440 nM
Cc1ccc(F)c([C@@H](C)[C@H](NS(=O)(=O)c2ncc(Br)cc2C(N)=O)c2n[nH]c(=O)o2)c1C | 20 nM
COC(=O)c1cc(Cl)c(N)cc1S(=O)(=O)N[C@H](c1n[nH]c(=O)o1)[C@H](C)c1c(F)ccc(C)c1C | 660 nM
Cc1ccc(F)c([C@@H](C)[C@H](NS(=O)(=O)c2c(F)cc(F)c3c2OCCC3O)c2n[nH]c(=O)o2)c1C (stereo not given in full) | 230 nM
Cc1ccc(F)c([C@@H](C)[C@H](NS(=O)(=O)c2ccc(Cl)cc2C(=O)O)c2n[nH]c(=O)o2)c1C | 180 nM
Cc1ccc(F)c([C@@H](C)[C@H](NS(=O)(=O)c2ccccc2C(=O)NO)c2n[nH]c(=O)o2)c1C | 310 nM
CNC(=O)c1nc(S(=O)(=O)N[C@H](c2n[nH]c(=O)o2)[C@H](C)c2c(F)ccc(C)c2C)ccc1Cl | 60 nM
Cc1ccc(F)c([C@@H](C)[C@H](NS(=O)(=O)c2ccc(Cl)c(C(=O)N3CCC(N)C3)n2)c2n[nH]c(=O)o2)c1C (stereo not given in full) | 150 nM
CC(=O)N1CCOc2c(S(=O)(=O)N[C@H](c3n[nH]c(=O)o3)[C@H](C)c3cccc(C)c3C)ccc(Cl)c21 | 560 nM
Cc1c(Cl)ccc(F)c1[C@@H](C)[C@H](NS(=O)(=O)c1ccc(Cl)c2c1OCCN2C)c1n[nH]c(=O)o1 | 130 nM
Cc1ccc(F)c([C@@H](C)[C@H](NS(=O)(=O)c2cc3c(cc2C(N)=O)OCCO3)c2n[nH]c(=O)o2)c1C | 90 nM
Cc1c(Br)ccc(F)c1[C@@H](C)[C@H](NS(=O)(=O)c1ncc(Cl)cc1C(N)=O)c1n[nH]c(=O)o1 | 60 nM
